Test results as given in patent US20240010726A1, “LFA-1 SIGNALLING MEDIATOR FOR USE IN CANCER THERAPY” (Universität Basel, priority 2020, published 2024).

Tests used:
MC38-OVA tumor cells = assay: Murine MC38-OVA tumor model, in vivo CD8+ T cell depletion; settings: OVA immunized mice; 3 mM MgCl2 vs NaCl i.t.; anti-CD8a Ab 10 mg kg^−1 i.p. weekly
Description: FIG. 1: Intratumoral magnesium administration improves adaptive anti-tumor immunity. (a) Schematic of experimental design. B1/6 mice, either immunized with OVA or left untreated, were inoculated subcutaneously with MC38-OVA tumor cells bilaterally on the flanks. From day 7, injection of 3 mM NaCl solution was applied in left flank tumor, whereas 3 mM MgCl2 solution was injected in contralateral tumor. This regimen was repeated every third day for a total of 8 cycles. (b) Tumor growth curves in non-immunized mice (n=20) (left panel), and immunized mice (n=19) (right panel). (c) Tumor growth curves in ±CD8 depleted mice (n=6-17). Results were pooled from 2 independent experiments, with n=6-12 mice each. (d) Absolute numbers of tumor-infiltrating CD8^+ T cells. (e) Number of tumor-infiltrating CD8^+ T cells positive for Ki67 (left panel), Granzyme B (middle panel) and CD25 (right panel). (f) Cell number of tumor-infiltrating CD8^+ T cells expressing PD-1 and Tim3. (g) Schematic of experimental design. B1/6 mice, immunized with OVA, were inoculated subcutaneously with MC38-OVA tumor cells unilaterally on the flank. From day 5, intratumoral injections of either 3 mM NaCl or 3 mM MgCl2 were initiated, and repeated every third day for 8 cycles. Mice were additionally injected with 200 μg i.p. of isotype control (IgG2a) or anti-PD-1 Ab on day 9, 12, and 15. […]

LFA-1 = target: T1, LFA-1 (Homo sapiens, UniProt P05107+P20701); assay: LFA-1 conformations on REP T cells co-incubated with peptide-pulsed T2 target cells; format: cell-based; settings: T2 cells pulsed with 10^−8 M 9c peptide; E:T 1:1; presence vs absence of extracellular Mg^2+
T1 construct: endogenous in cells; host or cells: primary human T cells from healthy donors: PHA-induced T cell blasts, sorted EM and naive CD8 T cells, and NY-ESO-1 TCR-transduced REP T cells
T1 sequence (P20701 26-1170): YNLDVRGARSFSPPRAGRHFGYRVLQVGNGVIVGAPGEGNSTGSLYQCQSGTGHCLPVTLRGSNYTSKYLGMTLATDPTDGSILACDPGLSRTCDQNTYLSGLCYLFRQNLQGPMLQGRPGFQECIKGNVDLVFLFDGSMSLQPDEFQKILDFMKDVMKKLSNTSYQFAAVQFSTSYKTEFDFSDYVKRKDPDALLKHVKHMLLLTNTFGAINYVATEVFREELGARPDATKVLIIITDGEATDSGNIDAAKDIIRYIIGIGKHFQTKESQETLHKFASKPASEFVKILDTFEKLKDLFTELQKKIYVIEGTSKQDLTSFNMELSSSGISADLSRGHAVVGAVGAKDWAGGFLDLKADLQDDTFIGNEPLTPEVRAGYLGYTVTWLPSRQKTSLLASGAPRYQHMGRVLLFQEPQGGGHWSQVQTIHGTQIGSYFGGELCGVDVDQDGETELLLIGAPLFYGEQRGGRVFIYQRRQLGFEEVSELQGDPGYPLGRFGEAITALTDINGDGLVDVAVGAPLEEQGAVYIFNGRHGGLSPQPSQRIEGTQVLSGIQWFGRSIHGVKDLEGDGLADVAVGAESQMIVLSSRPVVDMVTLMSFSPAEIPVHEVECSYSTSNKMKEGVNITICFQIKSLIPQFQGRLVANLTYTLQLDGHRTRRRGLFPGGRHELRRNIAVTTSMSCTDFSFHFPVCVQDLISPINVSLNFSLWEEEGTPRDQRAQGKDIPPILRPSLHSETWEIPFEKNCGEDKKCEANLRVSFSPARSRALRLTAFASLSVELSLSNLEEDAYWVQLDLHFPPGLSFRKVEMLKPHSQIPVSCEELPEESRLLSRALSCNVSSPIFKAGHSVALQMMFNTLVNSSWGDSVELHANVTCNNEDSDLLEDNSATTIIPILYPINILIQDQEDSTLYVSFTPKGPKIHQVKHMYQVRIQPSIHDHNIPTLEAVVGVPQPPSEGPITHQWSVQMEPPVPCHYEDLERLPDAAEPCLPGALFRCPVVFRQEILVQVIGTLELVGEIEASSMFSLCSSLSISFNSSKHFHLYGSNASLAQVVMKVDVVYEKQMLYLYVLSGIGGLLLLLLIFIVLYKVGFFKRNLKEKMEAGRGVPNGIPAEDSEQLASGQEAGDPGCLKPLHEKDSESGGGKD
T1 sequence (P05107 23-769): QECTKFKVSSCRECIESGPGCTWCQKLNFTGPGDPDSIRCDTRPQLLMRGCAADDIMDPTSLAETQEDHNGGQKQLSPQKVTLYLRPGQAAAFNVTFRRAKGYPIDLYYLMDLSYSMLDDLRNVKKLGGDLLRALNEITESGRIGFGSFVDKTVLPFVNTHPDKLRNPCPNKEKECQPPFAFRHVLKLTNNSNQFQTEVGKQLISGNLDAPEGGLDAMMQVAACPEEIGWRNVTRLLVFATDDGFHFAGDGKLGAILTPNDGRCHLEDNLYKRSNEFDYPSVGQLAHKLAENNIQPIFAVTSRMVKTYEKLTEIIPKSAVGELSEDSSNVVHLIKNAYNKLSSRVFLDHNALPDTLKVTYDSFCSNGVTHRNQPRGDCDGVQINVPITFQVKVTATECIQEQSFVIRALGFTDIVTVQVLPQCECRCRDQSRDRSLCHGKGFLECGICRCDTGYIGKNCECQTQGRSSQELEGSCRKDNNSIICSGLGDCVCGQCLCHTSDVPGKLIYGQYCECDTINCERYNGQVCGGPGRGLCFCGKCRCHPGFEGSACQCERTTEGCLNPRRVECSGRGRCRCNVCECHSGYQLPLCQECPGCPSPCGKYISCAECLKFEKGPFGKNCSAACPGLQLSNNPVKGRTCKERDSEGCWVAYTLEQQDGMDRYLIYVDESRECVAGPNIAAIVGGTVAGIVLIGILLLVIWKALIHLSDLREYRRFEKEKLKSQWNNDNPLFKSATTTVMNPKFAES
Description: FIG. 3: Magnesium regulates LFA-1 mediated T cell activation and cytotoxicity as well BiTE- and CAR T-cell functionality. (a) Glycolytic switch of murine WT and LFA-1^-/- CTLs upon injection of anti-CD3/28 Ab in medium containing 1.2 mM Mg^2+ and 0 mM Mg^2+, presented as quantification of summarized data with n=4 mice. (b) Calcium flux in WT and LFA-1^-/- Jurkat T cells stimulated with anti-CD3 Ab in 1.2 mM and 0 mM Mg^2+ medium, respectively. Cells were loaded with Fluo4, and signal intensity as recorded by plate reader, was normalized to unstimulated baseline values. […] Quantified results of n=3 mice with 3 technical replicates each. […] The effector to target cell ratio was 3:1. Results are quantified of n=3 mice with 3 technical replicates each. (e) Representative CD11a (LFA-1) surface expression on human naïve and EM CD8 T cells, PHA T cell blasts and REP T cells, assessed by flow cytometry. […] The effector to target cell ratio was 1:1. Data is presented as quantified results of n=5 healthy donors (f, g, h), n=3 healthy donors with 2 technical replicates each or n=1 healthy donor with 4 technical replicates (j). […] The effector to target cell ratio was 1:1. Data is presented as quantified results of n=1 healthy donor with 4 technical replicates. […] (n) Representative histogram of CD11a expression on PHA-blasts, untransduced T cells as well anti-CD19 expressing CAR T cells. […] Pooled results of n=6 from 2 independent experiments are shown. (p) Abundance of IFNγ in cell culture supernatants corresponding to the conditions depicted in (o) at 24 hours was determined by ELISA (n=8, 3 independent experiments). (q) Tumor growth curves of mice placed on either Mg^2+-depleted diet or respective control diet and treated with either anti-PSMA CAR T cells, untransduced T cells or saline solution. Representative of n=2 independent experiments with n=6 mice per group. REP […] target cells in flat bottom 96 well-plate, if not indicated otherwise, at a 1:1 ratio (4-6×10^4 each). Optimal ratio had been titrated for each donor beforehand. […]

SMILES: [Mg+2] [Mg^2+, Magnesium]
- Tumor growth in ±CD8 depleted mice (MC38-OVA tumor cells): exerted its effect via CD8^+ T cells
- Extended LFA-1 conformation on REP T cells (LFA-1): significant increase of extended LFA-1
- Inactive LFA-1 with bent conformation on REP T cells (LFA-1): reduced abundance of inactive, bent conformation
- LFA-1 with open head-piece on REP T cells (LFA-1): significant increase
